Assay results published in ChEMBL document CHEMBL3352061, “Novel amino-β-lactam derivatives as potent cholesterol absorption inhibitors” (Eur J Med Chem, 2014).

Assays:
[1] = Inhibition of cholesterol uptake in MDCK2 cells expressing human NPC1L1 after 1 hr by liquid scintillation counting; type: cell-based; details: Canis lupus familiaris, MDCK-II
[2] = Inhibition of cholesterol uptake in MDCK2 cells at 20 to 100 uM after 1 hr by liquid scintillation counting; type: cell-based, Canis lupus familiaris; details: dog, mdck-ii
[3] = Inhibition of cholesterol uptake in MDCK2 cells expressing human NPC1L1 at 20 to 100 uM after 1 hr by liquid scintillation counting; type: cell-based, Canis lupus familiaris; details: dog, mdck-ii

Row | SMILES | IC50 [1] [µM] | inhibition (INH) [2] | inhibition (INH) [3]
1 | O=C1[C@H](NC[C@H](O)c2ccc(F)cc2)[C@@H](c2ccc(O)cc2)N1c1ccc(F)cc1 | 80 | – | –
2 | O=C1[C@H](NC[C@@H](O)c2ccc(F)cc2)[C@@H](c2ccc(O)cc2)N1c1ccc(F)cc1 | 60 | – | –
3 | O=C1[C@H](CC[C@H](O)c2ccc(F)cc2)[C@@H](c2ccc(O)cc2)N1c1ccc(F)cc1 [EZETIMIBE] | – | Not Active | Active
